Results taken from patent US20260258084A1, “New Peptides as Selective IL-23 Receptor Antagonists” (Sanofi, priority 2022, published 2026).
Starred links: 1 amine or outer side, 2 acyl side, 3 side chain; linkers in the order of their positions; H or OH if unused. Positions of bridges follow the written chain, without caps; N, C: chain ends. Non-standard residues stand in square brackets, D forms with d. Residues, ends and D or L forms follow the SMILES beside them. *: point of attachment. X3 = CN(CCCCC(=O)N[C@@H](CS[*:2])C(=O)[*:1])[*:3]; Trp(7-Me) = Cc1cccc2c(C[C@H](N)C(=O)O)c[nH]c12; X1 = O=C(CCCCN[*:3])N[C@@H](CS[*:2])C(=O)[*:1]; αMeLys(Me2) = CN(C)CCCC[C@](C)(N)C(=O)O; X2 = CN(C)[C@@H](CCCCN[*:1])C(=O)[*:2]; 2Nal = N[C@@H](Cc1ccc2ccccc2c1)C(=O)O; AEF = NCCOc1ccc(C[C@H](N)C(=O)O)cc1; 3Pal = N[C@@H](Cc1cccnc1)C(=O)O; X4 = CN(CCCCCC(=O)[*:2])[*:1]; αMeL = CC(C)C[C@](C)(N)C(=O)O; Suc = O=C(CCC(=O)[*:2])[*:1]; Thp = NC1(C(=O)O)CCOCC1; Me2NCH2CH2 = CN(C)CC*; Aib = CC(C)(N)C(=O)O; Ava = NCCCCC(=O)O; βAla = NCCC(=O)O; Sar = CNCC(=O)O

Tested on: Pancreatin
Assay: Protease stability in simulated intestinal fluid (Pancreatin-SIF, FaSSIF)
Type: in vitro ADME
Settings: 1 μM peptide, 37° C.; for remaining at 1 h, 1 µM: 60 min, read-out: FaSSIF 60 (min), remaining percent of peptide; for remaining at 2 h, 1 µM: 120 min, read-out: FaSSIF 120 (min), remaining percent of peptide; for remaining at 4 h, 1 µM: 240 min, read-out: FaSSIF 240 (min), remaining percent of peptide
How it was run: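 LC-MS/MS peak areas at 0, 60, 120 and 240 min, normalised to time 0 as 100%, give percent remaining. Reactions used 1 μM final peptide at 37° C in pancreatin-SIF (1 mg pancreatin in 10 mL SIF concentrate) and were stopped with ethanol containing 0.1% HCOOH.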

| remaining at 1 h, 1 µM | remaining at 2 h, 1 µM | remaining at 4 h, 1 µM | Compound |
| --- | --- | --- | --- |
| 80% | 79% | 76% | Cc1cccc2c(C[C@@H]3NC(=O)[C@H]([C@@H](C)O)NC(=O)[C@H](CC(N)=O)NC(=O)[C@@H]4CSSC[C@H](NC(=O)[C@H](CC(C)C)NC3=O)C(=O)N[C@@H](Cc3ccc(OCCN(C)C)cc3)C(=O)N[C@@H](Cc3ccc5ccccc5c3)C(=O)NC3(CCOCC3)C(=O)N[C@H](C(=O)N[C@@H](CC(N)=O)C(=O)N[C@@H](Cc3cccnc3)C(=O)N(C)CC(N)=O)CCC(=O)NCCCCC(=O)N4)c[nH]c12 [compound 24] ([Ava]CNT[Trp(7-Me)]LCY(Me2NCH2CH2)[2Nal][Thp]EN[3Pal][Sar]-NH2; disulfide 2-7; lactam N-11) |
| 80% | 76% | 65% | COc1ccc(C[C@@H]2NC(=O)[C@@H]3CSSC[C@H](NC(=O)CCC(=O)NCCCC[C@@H](C(=O)N[C@@H](CC(N)=O)C(=O)N[C@@H](CC(N)=O)C(N)=O)NC(=O)C(C)(C)NC(=O)[C@H](Cc4ccc5ccccc5c4)NC2=O)C(=O)N[C@@H](CC(N)=O)C(=O)N[C@@H]([C@@H](C)O)C(=O)N[C@@H](Cc2c[nH]c4ccccc24)C(=O)N[C@@H](CCC(N)=O)C(=O)N3)cc1 [compound 11] |
| 83% | 68% | 49% | CC(=O)N[C@H]1CCCCNC(=O)[C@@H]2CSSC[C@H](NC(=O)[C@H](CCC(N)=O)NC(=O)[C@H](Cc3c[nH]c4ccccc34)NC1=O)C(=O)N[C@@H](Cc1ccc(OCCN)cc1)C(=O)N[C@@H](Cc1ccc3ccccc3c1)C(=O)N[C@@](C)(CC(C)C)C(=O)N[C@H](C(=O)N[C@@H](CC(N)=O)C(=O)N[C@@H](CC(N)=O)C(N)=O)CCC(=O)N(C)CCCCC(=O)N2 [compound 14] (Ac-KWQC[AEF][2Nal][αMeL]ENN-NH2; linker 1-4-8 via X3) |
| 81% | 82% | 73% | CC(C)C[C@]1(C)NC(=O)[C@H](Cc2ccc3ccccc3c2)NC(=O)[C@H](Cc2ccc(OCCN(C)C)cc2)NC(=O)[C@@H]2CSSC[C@H](NC(=O)CCCCNC(=O)CC[C@@H](C(=O)N[C@@H](CC(N)=O)C(=O)N[C@@H](CC(N)=O)C(N)=O)NC1=O)C(=O)N[C@@H](CC(N)=O)C(=O)N[C@@H]([C@@H](C)O)C(=O)N[C@@H](Cc1c[nH]c3ccccc13)C(=O)N[C@@H](CCC(N)=O)C(=O)N2 [compound 27] ([Ava]CNTWQCY(Me2NCH2CH2)[2Nal][αMeL]ENN-NH2; disulfide 2-7; lactam N-11) |
| 79% | 68% | 67% | CC(=O)NCCCC[C@@H]1NC(=O)[C@H](Cc2c[nH]c3c(C)cccc23)NC(=O)[C@H]([C@@H](C)O)NC(=O)[C@H](CC(N)=O)NC(=O)[C@@H]2CSSC[C@H](NC1=O)C(=O)N[C@@H](Cc1ccc(OCCN(C)C)cc1)C(=O)N[C@@H](Cc1ccc3ccccc3c1)C(=O)N[C@@](C)(CC(C)C)C(=O)N[C@H](C(=O)N[C@@H](CC(N)=O)C(=O)N[C@@H](Cc1c[nH]cn1)C(N)=O)CCCCNC(=O)CCC(=O)N2 [compound 23] (CNT[Trp(7-Me)]K(Ac)CY(Me2NCH2CH2)[2Nal][αMeL]KNH-NH2; disulfide 1-6; linker N-10 via Suc) |
| 80% | 80% | 76% | CC(=O)NCCCC[C@@H]1NC(=O)[C@H](Cc2c[nH]c3c(C)cccc23)NC(=O)[C@H]([C@@H](C)O)NC(=O)[C@H](CC(N)=O)NC(=O)[C@@H]2CSSC[C@H](NC1=O)C(=O)N[C@@H](Cc1ccc(OCCN(C)C)cc1)C(=O)N[C@@H](Cc1ccc3ccccc3c1)C(=O)NC(C)(C)C(=O)N[C@H](C(=O)N[C@@H](CC(N)=O)C(=O)N[C@@H](Cc1c[nH]cn1)C(=O)NCCC(N)=O)CCC(=O)NCCCCC(=O)N2 [compound 48] ([Ava]CNT[Trp(7-Me)]K(Ac)CY(Me2NCH2CH2)[2Nal][Aib]ENH[βAla]-NH2; disulfide 2-7; lactam N-11) |
| 77% | 70% | 54% | CC(C)C[C@@H](NC(=O)[C@H](CC(N)=O)NC(=O)[C@@H]1CC(=O)N(C)CCCCCC(=O)N[C@H]2CSSC[C@H](NC(=O)[C@H](CCC(N)=O)NC(=O)[C@H](Cc3c[nH]c4ccccc34)NC(=O)[C@H]([C@@H](C)O)NC(=O)[C@H](CC(N)=O)NC2=O)C(=O)N[C@@H](Cc2ccc(OCCN(C)C)cc2)C(=O)N[C@@H](Cc2ccc3ccccc3c2)C(=O)N[C@@](C)(CC(C)C)C(=O)N1)C(N)=O [compound 40] ([X4]CNTWQCY(Me2NCH2CH2)[2Nal][αMeL]DN[dL]-NH2; disulfide 2-7; lactam N-11) |
| 83% | 70% | 54% | CC(=O)N[C@H]1CCCCNC(=O)[C@@H]2CSSC[C@H](NC(=O)[C@H](CCC(N)=O)NC(=O)[C@H](Cc3c[nH]c4ccccc34)NC1=O)C(=O)N[C@@H](Cc1ccc(OCCN)cc1)C(=O)N[C@@H](Cc1ccc3ccccc3c1)C(=O)NC1(CCOCC1)C(=O)N[C@H](C(=O)N[C@@H](CC(N)=O)C(=O)N[C@@H](CC(N)=O)C(N)=O)CCC(=O)N(C)CCCCC(=O)N2 [compound 13] (Ac-KWQC[AEF][2Nal][Thp]ENN-NH2; linker 1-4-8 via X3) |

The next lines start with the compound.

| Compound | remaining at 1 h, 1 µM | remaining at 2 h, 1 µM | remaining at 4 h, 1 µM |
| --- | --- | --- | --- |
| CC(=O)N[C@H]1CCCCNC(=O)[C@@H]2CSSC[C@H](NC(=O)[C@H](CCC(N)=O)NC(=O)[C@H](Cc3c[nH]c4ccccc34)NC1=O)C(=O)N[C@@H](Cc1ccc(OCCN(C)C)cc1)C(=O)N[C@@H](Cc1ccc3ccccc3c1)C(=O)NC1(CCOCC1)C(=O)N[C@H](C(=O)N[C@@H](C)C(=O)N[C@H](CC(C)C)C(N)=O)CCC(=O)NCCCCC(=O)N2 [compound 33] (Ac-KWQCY(Me2NCH2CH2)[2Nal][Thp]EA[dL]-NH2; linker 1-4-8 via X1) | 100% | 100% | 85% |
| CC(=O)N[C@H]1CCCCNC(=O)[C@@H]2CSSC[C@H](NC(=O)[C@H](CCC(N)=O)NC(=O)[C@H](Cc3c[nH]c4ccccc34)NC1=O)C(=O)N[C@@H](Cc1ccc(OCCN)cc1)C(=O)N[C@@H](Cc1ccc3ccccc3c1)C(=O)NC(C)(C)C(=O)N[C@H](C(=O)N[C@@H](CC(N)=O)C(=O)NCC(N)=O)CCC(=O)N(C)CCCCC(=O)N2 [compound 15] (Ac-KWQC[AEF][2Nal][Aib]ENG-NH2; linker 1-4-8 via X3) | 81% | 65% | 43% |
| CC(=O)N[C@H]1CCCCNC(=O)[C@@H]2CSSC[C@H](NC(=O)[C@H](CCC(N)=O)NC(=O)[C@H](Cc3c[nH]c4ccccc34)NC1=O)C(=O)N[C@@H](Cc1ccc(OCCN)cc1)C(=O)N[C@@H](Cc1ccc3ccccc3c1)C(=O)NC1(CCOCC1)C(=O)N[C@H](C(=O)N[C@@H](C)C(=O)NCC(N)=O)CCC(=O)N(C)CCCCC(=O)N2 [compound 17] (Ac-KWQC[AEF][2Nal][Thp]EAG-NH2; linker 1-4-8 via X3) | 81% | 75% | 64% |
| CC(=O)N[C@H]1CCCCNC(=O)[C@@H]2CSSC[C@H](NC(=O)[C@H](CCC(N)=O)NC(=O)[C@H](Cc3c[nH]c4ccccc34)NC1=O)C(=O)N[C@@H](Cc1ccc(OCCN)cc1)C(=O)N[C@@H](Cc1ccc3ccccc3c1)C(=O)N[C@@](C)(CC(C)C)C(=O)N[C@H](C(=O)N[C@@H](C)C(=O)NCC(N)=O)CCC(=O)N(C)CCCCC(=O)N2 [compound 18] (Ac-KWQC[AEF][2Nal][αMeL]EAG-NH2; linker 1-4-8 via X3) | 81% | 76% | 76% |
| CC(=O)N[C@H]1CCCCNC(=O)[C@@H]2CSSC[C@H](NC(=O)[C@H](CCC(N)=O)NC(=O)[C@H](Cc3c[nH]c4ccccc34)NC1=O)C(=O)N[C@@H](Cc1ccc(OCCN)cc1)C(=O)N[C@@H](Cc1ccc3ccccc3c1)C(=O)N[C@@](C)(CC(C)C)C(=O)N[C@H](C(=O)N[C@@H](C)C(=O)N[C@H](CC(C)C)C(N)=O)CCC(=O)N(C)CCCCC(=O)N2 [compound 44] (Ac-KWQC[AEF][2Nal][αMeL]EA[dL]-NH2; linker 1-4-8 via X3) | 64% | 61% | 59% |
| CC(=O)NCCCC[C@@H]1NC(=O)[C@H](Cc2c[nH]c3ccccc23)NC(=O)[C@@H](N(C)C)CCCCNC(=O)[C@@H]2CSSC[C@H](NC1=O)C(=O)N[C@@H](Cc1ccc(OCCN(C)C)cc1)C(=O)N[C@@H](Cc1ccc3ccccc3c1)C(=O)N[C@@](C)(CCCCN(C)C)C(=O)N[C@H](C(=O)N[C@@H](CC(N)=O)C(=O)N[C@@H](Cc1cccnc1)C(=O)N(C)CC(N)=O)CCC(=O)NCCCCC(=O)N2 [compound 36] ([Ava]C[X2]WK(Ac)CY(Me2NCH2CH2)[2Nal][αMeLys(Me2)]EN[3Pal][Sar]-NH2; disulfide 2-6; lactam N-10) | 97% | 93% | 92% |
| CC(=O)N[C@H]1CCCCNC(=O)[C@@H]2CSSC[C@H](NC(=O)[C@H](CCC(N)=O)NC(=O)[C@H](Cc3c[nH]c4ccccc34)NC1=O)C(=O)N[C@@H](Cc1ccc(OCCN(C)C)cc1)C(=O)N[C@@H](Cc1ccc3ccccc3c1)C(=O)NC(C)(C)C(=O)N[C@H](C(=O)N[C@@H](C)C(=O)NCC(N)=O)CCC(=O)NCCCCC(=O)N2 [compound 32] (Ac-KWQCY(Me2NCH2CH2)[2Nal][Aib]EAG-NH2; linker 1-4-8 via X1) | 89% | 77% | 55% |
| CC(=O)N[C@H]1CCCCNC(=O)[C@@H]2CSSC[C@H](NC(=O)[C@H](CCC(N)=O)NC(=O)[C@H](Cc3c[nH]c4ccccc34)NC1=O)C(=O)N[C@@H](Cc1ccc(OCCN)cc1)C(=O)N[C@@H](Cc1ccc3ccccc3c1)C(=O)NC1(CCOCC1)C(=O)N[C@H](C(=O)N[C@@H](CC(N)=O)C(=O)NCC(N)=O)CCC(=O)N(C)CCCCC(=O)N2 [compound 16] (Ac-KWQC[AEF][2Nal][Thp]ENG-NH2; linker 1-4-8 via X3) | 83% | 67% | 50% |
